Data: patent US20100105628A1, “REDUCING POST-OPERATIVE ADHESION FORMATION WITH INTRAPERITONEAL GLUTAMINE” (UNIVERSITY OF SASKATCHEWAN, priority 2007, published 2010)
Converted amounts (≈) assume the structure as drawn. Peptide text beside a SMILES is read from it.

What was measured:
[1] = cited from earlier work
male Wistar rats = test: modified cecal puncture with pulstring, post-operative adhesion formation (Example 1); assay type: in vivo, rat; conditions: for complications due to intraperitoneal use: 0.3-1.5 g/kg intra-peritoneally; for acute inflammatory response (macrophages and macrophage chemotactic proteins): days 3-7
Procedure: 70 plus male Wistar rats (over 350 g each) were assessed histologically on post-operative days 1, 3, 5, 7, 10, 30, and at about 6 weeks. The rats were randomly distributed based on the mode of treatment, type of sutures and presence or absence of hemorrhage during surgery. Initially, there were three surgery groups (alanyl-glutamine treatment, saline, no treatment) plus a control (no surgery). A fifth group using L-glutamine instead of alanyl-glutamine was included after preliminary results were obtained.
The rats were anaesthetized with halothane/Ketamine. Open surgery involving a midline sub-umbilical incision and a modified cecal puncture with pulstring to prevent soilage after abdominal closure was done. The procedure involved some fecal extrusion, mimicking clinical scenarios of iatrogenic/traumatic perforations of the bowel. Alanyl-glutamine [Degussa; Coubevoie, France] (0.3 g/kg-1.5 g/kg); saline (5 ml); or L-glutamine [Wiler; PCCA] (1.5 g/kg) was instilled into the peritoneal cavity from a syringe. The cecum, abdomen, and the skin were closed in layers using the same suture. Various absorbable (3/0 Vicryl™, 3/0 Monocryl™, 3/0 PDS™, 2/0 Maxon™) and non-absorbable sutures (3/0 Prolene™, 3/0 Ethibond™, 4/0 & 5/0 Surgilene™, 3/0 Novafil™) were used. The wound was infiltrated with local anesthetic. The animals were given sufficient chow to eat (20 g/day≈2 mmole/kg/day). The gastrointestinal tract and omentum were harvested from the stomach to the sigmoid colon and fixed in formaldehyde solution for evaluation.
The severity of adhesions was assessed histologically using standard Haematoxylin & Eosin and Masson trichrome stained slides. The latter helped delineate the degree of fibrosis and collagen deposition.
Semi-quantitative analysis was done by scoring the average number of milky spots per high-power-field (HPF). Quantitative statistical analysis was done using the T-test between the experimental groups. Milky spots are a marker for inflammation and adhesion formation.
We evaluated macrophage activity following the abdominal surgery using a macrophage chemotactic protein (MCP1) antibody stain. MCP1 is a marker for macrophage activity. […] The fact that MCP1 was reduced by the treatment but was not completely absent is significant since complete absence is not desirable as it is associated with peritonitis and septic complications post-laparotomy.

rats = test: cecal puncture with Marlex mesh inserted, adhesion score of Zuhlke (Example 2); assay type: in vivo, rat; conditions: day 90
Procedure: Previous studies show a high incidence of adhesion formation when surgical mesh is employed as a reinforcing material [6a, 6b]. We repeated trials as described in Example 1, inserting Marlex™ mesh during the procedure on the surgical groups.
Severity of adhesions was assessed at day 90 using the adhesion score of Zuhlke, et al.. This scoring procedure has been described in the literature for assessment of other potential treatments for adhesions. […] This differs from previous measurements of adhesions using polypropylene mesh which reported up to about 90% adhesion formation [6a].

Sprague-Dawley rats = test: secondary adhesions after adhesiolysis, mesh implanted (Example 3); assay type: in vivo, rat; conditions: three weeks after adhesiolysis and alanyl-glutamine; six months after initial surgery with mesh
Procedure: Adhesions tend to recur once in place. We examined the effect of alanyl-glutamine treatment on such secondary adhesions. The modified cecal perforation with pulstring closure procedure described in Example 1 was performed on 9 Sprague-Dawley rats. These were divided into 5 groups, each group receiving a different form of mesh (INTERCEED™; PROCEED™; BARD™ composite; prolene; and a mesh which was allowed to be “infected” by repeated re-opening of the wound). The surgical procedure with mesh implacement was performed without application of a glutamine source. Six months after initial surgery, a laparotomy was performed on each rat then adhesiolysis followed by installation of alanyl-glutamine.

[2] = versus saline and non-treatment surgical groups

complications due to intraperitoneal use (male Wistar rats) | Structure (SMILES) | solubility in water [1] [mg/mL] | acute inflammatory response (macrophages and macrophage chemotactic proteins) (male Wistar rats; [2]) | water solubility ([1]; at 20° C.) [mg/mL] | effectiveness of dosage (male Wistar rats; 0.3 g/kg intraperitoneal) | effectiveness of dosage (male Wistar rats; 1.5 g/kg intraperitoneal) | histological appearance of the peritoneum, adhesion (male Wistar rats; 10th post-operative day, intraperitoneal, compared with untreated and saline treated surgical groups) | fibrosis and collagen deposition (male Wistar rats; day-10 animals, versus saline and non-treatment surgical groups) | milky spots per 5 high power field (5HPF) (male Wistar rats; peritoneum, controls 1 per 5HPF, untreated surgical group 6-7 per 5HPF) | adhesions in all the suture groups (braided and monofilament) (male Wistar rats; rat, in vivo) | adhesion, histological, later assessment (male Wistar rats; rats assessed at 6 weeks) | adhesion score of Zuhlke (rats) | recurrence of adhesions (secondary adhesions), scored according to Zuhlke (Sprague-Dawley rats)
 | NCC(=O)N[C@@H](CCC(N)=O)C(=O)O [Glycyl-glutamine] (H-Gly-Gln-OH) | 154 (≈ 758 mM) |  |  |  |  |  |  |  |  |  |  | 
did not observe complications | NC(=O)CC[C@H](N)C(=O)O [L-glutamine] |  | reduction, but to a lesser extent | 36 (≈ 246 mM) |  |  |  |  |  |  |  |  | 
did not observe complications | C[C@H](N)C(=O)N[C@@H](CCC(N)=O)C(=O)O [alanyl-glutamine] (H-Ala-Gln-OH) | 568 (≈ 2610 mM) | markedly reduced |  | effective | effective | very minimal adhesion | reduced | the same as the controls | prevented adhesions | This result continued | 0-1 | no secondary adhesions were seen
